Measured values taken from patent US4791215A, “Derivatives of glutamic acid and aspartic acid” (priority 1984, dated 1988).

Legend:
morphine analgesia = experiment: Increase in analgesia of morphine, Tail Flick Test (Experiment 1); format: in vivo, rats; details: for percentage variation of latency of pain sensation / M (10-90) ± SE, mean percentage variation of latency: compound 10 mg/kg i.p. + morphine 2 mg/kg; for M (10-90) ± SE, mean percentage variation of latency: mean 10-90 min; for Power ratio with respect to morphine alone: rat, in vivo
Outline: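 Non-fasted male rats (150-200 g); a tail point is exposed to a 75 °C heat source and latency to tail movement recorded, 8 s cut-off. Readings taken before and 10, 20, 30, 45, 60 and 90 min after analgesic treatment; percentage variation calculated per animal.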

[1] = tested on: CCK-8 induced contraction of guinea pig gall bladder; experiment: Anti-CCK activity on gall bladder strips in vitro; details: CCK-8 10 ng/ml
Experimental: ANTI-CCK ACTIVITY ON GUINEA PIG GALL BALDDERS IN VITRO
A longitudinal strip of guinea pig gall bladder was placed in a bath of isolated members in the presence of Krebs at a temperature of 32° C. with continuous oxygenation with an oxygen-CO2 mixture (95-5V/V).
The isometric contractions were detected by means of a force transducer and recorded.
The gall bladder was made to contract with the use of a 10 ng/ml concentration of CCK-8; the antagonistic activity of the compounds of the invention on the contracting effect of the CCK was determined with the use of different concentrations and the ED 50 value, that is the concentration in μg/ml of a compound which could antagonise 50% of the contracting effect of the CCK, was determined.

| Structure (SMILES) | percentage variation of latency of pain sensation (morphine analgesia; 10') [%] | percentage variation of latency of pain sensation (morphine analgesia; 20') [%] | percentage variation of latency of pain sensation (morphine analgesia; 30') [%] | percentage variation of latency of pain sensation (morphine analgesia; 45') [%] | percentage variation of latency of pain sensation (morphine analgesia; 60') [%] | percentage variation of latency of pain sensation (morphine analgesia; 90') [%] | M (10-90) ± SE, mean percentage variation of latency (morphine analgesia) [%] | Power ratio with respect to morphine alone (morphine analgesia) | ED50 (concentration antagonising 50% of contracting effect of CCK-8) [1] [µg/mL] |
| --- | --- | --- | --- | --- | --- | --- | --- | --- | --- |
| CCCCN(CCCC)C(=O)C(CCC(=O)O)NC(=O)c1ccc(Cl)cc1Cl (stereo not drawn) [Compound C-10] | 56.9 ± 25.8 | 66.4 ± 21.4 | 72.9 | 70.1 ± 18.5 | 66.2 ± 21.3 | 63.2 ± 23.4 | 66.0 ± 5.6 | 2.21 | 43.7 |
| N#Cc1cccc(C(=O)NC(CC(=O)O)C(=O)NC2CCCCC2)c1 (stereo not drawn) [Compound C-23] | 33.1 ± 19.0 | 49.9 ± 15.0 | 58.2 ± 17.0 | 68.3 ± 20.0 | 72.0 | 58.7 ± 22.0 | 56.7 ± 14.0 | 1.90 | > 200 |
| CCCN(CCC)C(=O)C(CC(=O)O)NC(=O)c1cccc(C#N)c1 (stereo not drawn) [Compound C-22] | 82.7 ± 9.4 | 67.6 ± 18.0 | 88.4 ± 9.3 | 83.3 | 93.6 ± 6.4 | 53.8 ± 14.9 | 78.2 ± 15.0 | 2.62 | > 200 |
| CCCN(CCC)C(=O)C(CCC(=O)O)NC(=O)c1ccccc1Cl (stereo not drawn) [Compound C-1] | 65.3 ± 18.0 | 67.2 | 66.3 ± 14.0 | 82.7 ± 11.0 | 68.8 ± 17.0 | 59.3 ± 25.0 | 68.2 | 2.29 | > 200 |
| CCCCN(CCCC)C(=O)CCC(NC(=O)c1ccc(Br)cc1)C(=O)O [Compound D-4] | 72.8 ± 15.0 | 95.8 ± 3.0 | 96.3 ± 4.0 | 85.5 | 87.5 ± 8.0 | 45.3 ± 6.0 | 80.5 ± 19.3 | 2.70 | > 200 |
| CCCN(CCC)C(=O)C(CCC(=O)O)NC(=O)c1ccc(Br)cc1 (stereo not drawn) [Compound C-15] | 59.8 ± 14.0 | 84.2 ± 9.6 | 78.3 ± 13.5 | 88.7 ± 8.5 | 82.5 ± 12.7 | 54.5 ± 14.7 | 74.7 | 2.51 | > 200 |
| CCCN(CCC)C(=O)C(CCC(=O)O)NC(=O)c1c(C)cc(C)cc1C (stereo not drawn) [Compound C-33] | -0.1 ± 12 | 30.9 ± 8 | 38.7 | 41.7 ± 16 | 48.7 ± 21 | 46.6 ± 12 | 34.4 ± 18 | 1.15 | 131.7 |
| CCCCN(CCCC)C(=O)C(CCC(=O)O)NC(=O)c1ccc(C)c(C)c1 (stereo not drawn) [Compound C-54] | 77.0 ± 10 | 89.1 ± 11 | 100 ± 0 | 99.2 ± 0.8 | 69.6 ± 16 | 63.2 ± 19 | 83.0 ± 15 | 2.78 | 1.2 |
| CCCN(CCC)C(=O)CCC(NC(=O)c1ccc(C)c(C)c1)C(=O)O [Compound D-15] | 43.5 ± 16 | 48.7 ± 18 | 72.6 | 60.1 ± 23 | 59.2 ± 18 | 43.5 ± 24 | 54.6 ± 11 | 1.83 | 245.0 |
| CCCCN(CCCC)C(=O)C(CCC(=O)O)NC(=O)c1cccc(C#N)c1 (stereo not drawn) [Compound C-24] | 80.3 ± 13.6 | 87.2 | 96.9 ± 3.0 | 100.0 ± 0.0 | 74.0 ± 16.0 | 75.3 ± 14.0 | 85.6 ± 11.0 | 2.87 | > 200 |
| CCCCN(CCCC)C(=O)C(CCC(=O)O)NC(=O)c1ccc(Br)cc1 (stereo not drawn) [Compound C-25] | 59.7 ± 15.0 | 49.0 ± 13.0 | 71.5 | 61.9 ± 22.0 | 49.0 ± 22.0 | 20.4 ± 6.0 | 51.9 ± 18.0 | 1.74 | 30.3 |
| O=C(O)CCC(NC(=O)c1ccc(Cl)c(Cl)c1)C(=O)N1CCCCC1 (stereo not drawn) [Compound C-26] | 50.1 ± 17.0 | 80.3 ± 20.0 | 84.7 ± 11.0 | 71.8 ± 15.0 | 32.2 | 4.9 ± 6.0 | 54.0 ± 31.1 | 1.81 | 146.5 |
| CCCCNC(=O)CC(NC(=O)c1ccc(Cl)c(Cl)c1)C(=O)O [Compound D-3] | 63.8 ± 17.0 | 79.9 ± 13.0 | 100.0 ± 0.0 | 58.6 ± 18.0 | 33.8 ± 18.0 | 32.9 ± 10.0 | 61.5 | 2.06 | > 200 |
| CCCN(CCC)C(=O)C(CCC(=O)O)NC(=O)c1cccc(Cl)c1 (stereo not drawn) [Compound C-2] | 27.8 ± 13.0 | 43.8 ± 25.0 | 67.5 ± 20.0 | 64.2 | 74.4 ± 16.0 | 57.3 ± 19.0 | 55.8 ± 17.0 | 1.87 | > 200 |
| N#Cc1ccc(C(=O)NC(CCC(=O)N2CCCCC2)C(=O)O)cc1 [Compound D-10] | 41.0 ± 8.0 | 58.6 ± 17.0 | 59.8 ± 17.0 | 62.7 ± 15.0 | 47.0 | 35.4 ± 11.0 | 50.8 ± 11.2 | 1.70 | > 200 |
| O=C(NC(CCC(=O)N1CCOCC1)C(=O)O)c1ccc(Br)cc1 [Compound D-6] | 31.2 ± 22.0 | 45.8 ± 23.0 | 50.7 | 44.5 ± 24.0 | 45.3 ± 24.0 | 28.2 ± 19.0 | 41.0 ± 9.0 | 1.37 | > 200 |
